The text below walks through data of paper PMC4677665 (ACS Medicinal Chemistry Letters, 2015).

Some results are limits rather than exact numbers.

Series [1] is described as follows: Brain penetration experiment. It is filed as in vivo, mice. To be noted: mouse, ip, 5 mg/kg.
Series [2] has as its system CRL-8155 human lymphocytic cells. The following applies: CRL-8155 cell line, 48 hours.
The subject of series [3] is Type I RH strain T. gondii.
The subject of series [4] is panel of ∼80 diverse human kinases. To be noted: read-out: IC50s of the kinases inhibited below 1 μM; three of the 80 kinases.

In series [1], `CCOc1ccc2cc(-c3nn(C(C)(C)C)c(N)c3C(N)=O)cnc2c1` [Compound 1] came in with a Kp of 0.158. Further, in series [2], the cytotoxicity is over 30 µM. The “T. gondii infection, peritoneal parasite count (in words)” value in series [3] (po for 5 days, twice daily) was “significantly reduced T. gondii infection”.
In the case of `CCOc1ccc2cc(-c3nn(CC4CC4)c(N)c3C(N)=O)cnc2c1` [Compound 6], in series [2], the cytotoxicity is over 40 µM.
The same measure, in the same setting: then `CCOc1ccc2cc(-c3nn(C4CCC4)c(N)c3C(N)=O)cnc2c1` [Compound 7], with over 40 µM.
In the case of `CCOc1ccc2cc(-c3nn(C4CCCC4)c(N)c3C(N)=O)cnc2c1` [Compound 8], the cytotoxicity in series [2] was over 40 µM.
On the same count and under the same terms, the figure for `CCOc1ccc2cc(-c3nn(C4CCCCCC4)c(N)c3C(N)=O)cnc2c1` [Compound 11] is over 40 µM; for `CCOc1ccc2cc(-c3nn(CC(C)(C)CO)c(N)c3C(N)=O)cnc2c1` [Compound 16] it is over 40 µM; for `CCOc1ccc2cc(-c3nn(C(C)(C)C)c(N)c3C(N)=O)ccc2n1` [Compound 17] it is over 40 µM.
Take `CCOc1ccc2cc(-c3nn(CC4CC4)c(N)c3C(N)=O)ccc2n1` [Compound 19]: the cytotoxicity in series [2] was over 40 µM.
Same read-out and setting: the figure for `CCOc1ccc2cc(-c3nn(CC(C)(C)CO)c(N)c3C(N)=O)ccc2n1` [Compound 22] is over 40 µM; for `CC(C)(C)n1nc(-c2cnc3cc(F)ccc3c2)c(C(N)=O)c1N` [Compound 23] it is over 40 µM.
Still for that read-out and setting: the figure for `COc1ccc2cc(-c3nn(C(C)(C)C)c(N)c3C(N)=O)cnc2c1` [Compound 28] is over 40 µM.
Compound `CC(C)Oc1ccc2cc(-c3nn(C(C)(C)C)c(N)c3C(N)=O)cnc2c1` [Compound 30] registered a cytotoxicity in series [2] of over 40 µM.
As to `CCCOc1ccc2cc(-c3nn(C(C)(C)C)c(N)c3C(N)=O)cnc2c1` [Compound 31], the cytotoxicity in series [2] is over 40 µM.
Same read-out and setting: the figure for `CC(C)(C)n1nc(-c2cnc3cc(OCC4CC4)ccc3c2)c(C(N)=O)c1N` [Compound 32] is over 40 µM.
In series [2], `CC(C)(C)n1nc(-c2ccc3nc(OC4CC4)ccc3c2)c(C(N)=O)c1N` [Compound 35] came in with a cytotoxicity of over 40 µM. The “T. gondii in the peritoneal fluid (in words)” value in series [3] (20 mg/kg) is given as “eliminated T. gondii from the peritoneal fluid”. Further, in series [3] (50 mg/kg group, po), the “death of treated mice” value was “one mouse in the 35, 50 mg/kg group died on the fifth day of treatment”. In series [4], the IC50 lay within 200 to 500 nM.
For `CC(C)(C)n1nc(-c2ccc3nc(OC4CCC4)ccc3c2)c(C(N)=O)c1N` [Compound 37], in series [2], the cytotoxicity is over 40 µM.
